The numbers were not newly measured in paper PMC3975045 (ACS medicinal chemistry letters, 2013), which cites them from elsewhere.

The subject of this series is OX1 and OX2.

As to [Ala^11,D-Leu^15]orexin B, the “selectivity for OX2 over OX1” value is 400 fold.
